Experiments:
Assay type in all cases: in vivo
[1] = tested on: Blumeria graminis f. Sp. tritici (Erysiphe graminis f. sp. tritici); assay: Blumeria graminis f. sp. tritici / wheat / leaf disc preventative (powdery mildew on wheat); details: foliar, wheat leaf segments cv. Kanzler, inoculated 1 day after application, assessed 6-8 days after application, compared to untreated, read-out: disease control
Procedure: Blumeria graminis f. Sp. tritici (Erysiphe graminis f. sp. tritici)/Wheat/Leaf Disc Preventative (Powdery Mildew on Wheat) Wheat leaf segments cv. Kanzler were placed on agar in a multiwell plate (24-well format) and sprayed with the formulated test compound diluted in water. The leaf disks were inoculated by shaking powdery mildew infected plants above the test plates 1 day after application. The inoculated leaf disks were incubated at 20° C. and 60% rh under a light regime of 24 h darkness followed by 12 h light/12 h darkness in a climate chamber and the activity of a compound was assessed as percent disease control compared to untreated when an appropriate level of disease damage appears on untreated check leaf segments (6-8 days after application). The following compounds gave at 200 ppm give at least 80% disease control in this test when compared to untreated control leaf disks under the same conditions, which show extensive disease development: […]

Phakopsora pachyrhizi = Phakopsora pachyrhizi on soybean, preventive treatment; details: 264 h, 1 day preventive, triazole tolerant soybean rust strain, evaluated 11 days after application, compared to untreated, read-out: disease control
Procedure: Phakopsora pachyrhizi on Soybean, Preventive Treatment
The compound activity was tested under 1 day preventive conditions. Soybean plants with a fully enfolded first trifoliate leaf were sprayed with a track sprayer and 50 l/ha spray volume with the test compounds, either solo or in tankmix as shown in the table below. 1 day after application leaf discs were cut from the first trifoliate leaf and placed in multiwell plates on water-agar. 5 leaf discs per treatment where infested with spores of a triazole tolerant soybean rust strain. The multiwell plates where sealed and placed in an incubator 48 h in darkness and 12 h light/dark cycle afterwards. Rust infestation on leaf discs was evaluated visually 11 days after application and average activity calculated in relation to disease severity on untreated check leaf discs.
The following compounds gave at 200 ppm gave at least 80% disease control in this test when compared to untreated control leaf disks under the same conditions, which show extensive disease development: […]

[2] = tested on: Puccinia recondita f. sp. tritici; assay: Puccinia recondita f. sp. tritici / wheat / leaf disc preventative (brown rust); details: foliar, 168 h, wheat leaf segments cv. Kanzler, inoculated 1 day after application, assessed 7-9 days after application, compared to untreated, read-out: disease control
Procedure: Puccinia recondita f. sp. tritici/Wheat/Leaf Disc Preventative (Brown Rust) Wheat leaf segments cv. Kanzler were placed on agar in multiwell plates (24-well format) and sprayed with the formulated test compound diluted in water. The leaf disks were inoculated with a spore suspension of the fungus 1 day after application. The inoculated leaf segments were incubated at 19° C. and 75% rh under a light regime of 12 h light/12 h darkness in a climate cabinet and the activity of a compound was assessed as percent disease control compared to untreated when an appropriate level of disease damage appears in untreated check leaf segments (7-9 days after application). The following compounds gave at 200 ppm gave at least 80% disease control in this test when compared to untreated control leaf disks under the same conditions, which show extensive disease development: […]

[3] = tested on: Puccinia recondita f. sp. tritici; assay: Puccinia recondita f. sp. tritici / wheat / leaf disc curative (brown rust); details: foliar, wheat leaf segments cv. Kanzler, compound applied 1 day after inoculation, assessed 6-8 days after application, compared to untreated, read-out: disease control
Procedure: Puccinia recondita f. sp. tritici/Wheat/Leaf Disc Curative (Brown Rust) Wheat leaf segments cv. Kanzler are placed on agar in multiwell plates (24-well format). The leaf segments are inoculated with a spore suspension of the fungus. Plates were stored in darkness at 19° C. and 75% rh. The formulated test compound diluted in water was applied 1 day after inoculation. The leaf segments were incubated at 19° C. and 75% rh under a light regime of 12 h light/12 h darkness in a climate cabinet and the activity of a compound was assessed as percent disease control compared to untreated when an appropriate level of disease damage appears in untreated check leaf segments (6-8 days after application). The following compounds gave at 200 ppm gave at least 80% disease control in this test when compared to untreated control leaf disks under the same conditions, which show extensive disease development: […]

Measured: pest or weed control at 200 ppm

CCN(C)C=Nc1cc(Br)c(OC(C)COc2ccccc2)nc1C (stereo not drawn) [Q.028, N′-[5-bromo-2-methyl-6-(1-methyl-2-phenoxy-ethoxy)-3-pyridyl]-N-ethyl-N-methyl-formamidine]
≥ 80%: all assays above

CCCOCC(C)Oc1nc(C)c(N=CN(C)C2CC2)cc1Br (stereo not drawn) [Q.029, N′-[5-bromo-2-methyl-6-(1-methyl-2-propoxy-ethoxy)-3-pyridyl]-N-cyclopropyl-N-methyl-formamidine]
≥ 80%: all assays above

CCCOCC(C)Oc1nc(C)c(N=CN2CCC2)cc1Br (stereo not drawn) [Q.030, 1-(azetidin-1-yl)-N-[5-bromo-2-methyl-6-(1-methyl-2-propoxy-ethoxy)-3-pyridyl]methanimine]
≥ 80%: all assays above

— patent publication US10173983B2, “Fungicidal pyridylamidines” (Syngenta Participations AG, priority 2014, dated 2019)
